Measured values: patent publication US10703971B2, “Chemiluminescent substrates” (Beckman Coulter, Inc., priority 2016, dated 2020)

Columns and labels:
[1] = tested on: alkaline phosphatase; test: Alternative cationic aromatic compounds, Imax on Turner 20/20e luminometer; details: compound used as cationic aromatic compound (CAC) in the formulation
[2] = tested on: alkaline phosphatase; test: Stability Test A: luminescence of the AP substrate formulation in a micro-titer plate after injection of AP; assay type: biochemical; details: 50% more of the named component added to a single lot of APS-5
Protocol: An aliquot (100 μL) of AP substrate formulation was added to a micro-titer plate well (8 replicates for each formulation). The plate was placed in a luminescence plate reader (Luminoskan, Labtech) and to each well was injected 20 μL of AP solution (2 ng/mL). Luminescence signal was read after 30 seconds and intergraded for 2 seconds.

[3] = tested on: Beckman Coulter System Check ALP; test: Stability of chemiluminescent compounds I in two buffer systems, signal RLU of samples stored at two temperatures; assay type: biochemical
Protocol: 3.25 mg/L Lucigenin, 10 mg/L Sodium Sulfite. The second was based on the present invention and included AMPD 0.1 M pH 9.70 containing 0.5 g/L STS, 1 g/L PEG (Mw=35,000), 3.25 mg/L Lucigenin, 10 mg/L Sodium Sulfite. Various chemiluminescent compounds I shown below were added to 200 mL aliquots of each buffer at 0.15 g/L.
Each formulation was split into ˜100 mL halves with one kept at ˜5° C. and the other kept at −30° C.
Material was tested periodically over two weeks measuring the relative change in signal RLU between the two storage conditions. Formulations were tested in 96-well plates by comparing samples at stored at two temperatures to reduce the variability associated with enzymes/temperature/day to day. The samples were incubated at 37° C. for 30 minutes on the instrument 20 uL of enzyme (prepared by mixing 1 mL of Beckman Coulter System Check ALP with 640 mL of the Sample Diluent Buffer) were injected into 200 uL of formulation. Kinetic signal was measured at ˜29 seconds after injection of ALP solution. 15-16 data points (wells) were measured for each Buffer/Temperature/Time point (Well A1 is excluded due to variation in injection volume).

Row | SMILES | I max RLU (Turner 20/20e luminometer with filter) [1] [RLU] | further results
1 | C[n+]1c2ccccc2c(-c2c3ccccc3[n+](C)c3ccc(Cl)cc23)c2ccccc21 | 1600 | 
2 | C[n+]1c2ccccc2c(-c2c3ccccc3cc3ccccc23)c2cc(Cl)ccc21 | 1037 | 
3 | C[n+]1c2ccccc2c(-c2c3ccccc3[n+](C)c3ccc(Cl)cc23)c2cc(Cl)ccc21 | 454 | 
4 | C[n+]1ccc2c(c1-c1c3c(cc[n+]1C)=CCCC=3)=CCCC=2 | 41 | 
5 | O=S([O-])[O-].[Na+].[Na+] [Sodium Sulfite, sodium sulfite] |  | Performance [2]: 100.1%
6 | CN1c2ccccc2C(=C(OP(=O)(O)O)Sc2ccccc2)c2ccccc21 [Compound 3] |  | Signal Loss at 30° C. (slope, % loss/Day) ([3]; 0.15 g/L compound in AMPD buffer system (AMPD 0.1 M pH 9.70, STS, PEG 35,000, lucigenin, sodium sulfite)): 0.53% loss/Day; Signal Loss at 30° C. (slope, % loss/Day) ([3]; 0.15 g/L compound in TRIS-Tween buffer system (Tris 0.3 M pH 9.35, SDS, Tween-20, lucigenin, sodium sulfite)): 0.61% loss/Day
7 | C1=c2cc[n+]3c(c2=CCC1)-c1c2c(cc[n+]1CC3)=CCCC=2 | 500 | 
8 | CCCCCCCCCCCCOS(=O)(=O)[O-].[Na+] [SDS, sodium dodecyl sulfate] |  | Performance [2]: 70.5%
